Assays:
[1] = biological target: T1, Recombinant Human NF-kappaB-Inducing Kinase (NIK/MAP3K14) (Homo sapiens, UniProt Q99558); test: Biological Assay A: inhibition of recombinant human NIK/MAP3K14 activity (MSD, MBP substrate); details: 10 nM NIK, 25 μM ATP, 1 h at 25° C.; averaged over all measurements on all batches; read-out: Biochemical (MSD IC50)
Protocol: Inhibition of Recombinant Human NF-kappaB-Inducing Kinase (NIK/MAP3K14) Activity Assay buffer was 50 mM Tris pH 7.5 containing 1 mM EGTA (ethylene glycol tetraacetic acid), 1 mM DTT (dithiothreitol), 0.1 mM Na3VO4, 5 mM MgCl2, 0.01% Tween® 20. Assays were carried out in 384 well Mesoscale high binding plates which had been coated with myelin basic protein (MBP) and blocked with bovine serum albumin to prevent non-specific protein binding. All compounds tested were dissolved in dimethyl sulfoxide (DMSO) and further dilutions were made in assay buffer. Final DMSO concentration was 1% (v/v) in assays. Incubations consisted of compound (1% DMSO in control and blank wells), 25 μM Adenosine-5′-triphosphate (ATP), and 10 nM NIK/MAP3K14 substituting enzyme with buffer in the blank wells. Incubations were carried out for 1 h at 25° C. and were followed by washing and sequential incubation with rabbit anti-phospho-MBP and anti-rabbit Ig Sulfotag antibody before reading bound Sulfotag on a Mesoscale Discovery. Signal obtained in the wells containing blank samples was subtracted from all other wells and ICso's were determined by fitting a sigmoidal curve to % inhibition of control versus Log10 compound concentration.

[2] = biological target: T1, Recombinant Human NF-kappaB-Inducing Kinase (NIK/MAP3K14); test: Biological Assay A2: inhibition of auto-phosphorylation of recombinant human NIK/MAP3K14 (AlphaScreen); assay type: biochemical; details: 0.2 nM GST-tagged NIK, 25 microM ATP, 1 h at 25° C., averaged values
Protocol: Inhibition of Auto-Phosphorylation of Recombinant Human NF-kappaB-Inducing Kinase (NIK/MAP3K14) Activity (AlphaScreen®)
NIK/MAP3K14 auto-phosphorylation activity was measured using the AlphaScreen® (αscreen) format (Perkin Elmer). All compounds tested were dissolved in dimethyl sulfoxide (DMSO) and further dilutions were made in assay buffer. Final DMSO concentration was 1% (v/v) in assays. Assay buffer was 50 mM Tris pH 7.5 containing 1 mM EGTA (ethylene glycol tetraacetic acid), 1 mM DTT (dithiothreitol), 0.1 mM Na3VO4, 5 mM MgCl2, 0.01% Tween® 20. Assays were carried out in 384 well Alphaplates (Perkin Elmer). Incubations consisted of compound, 25 microM Adenosine-5′-triphosphate (ATP), and 0.2 nM NIK/MAP3K14. Incubations were initiated by addition of GST-tagged NIK/MAP3K14 enzyme, carried out for 1 h at 25° C. and terminated by addition of stop buffer containing anti-phospho-IKK Ser176/180 antibody. Protein A Acceptor and Glutathione-Donor beads were added before reading using an EnVision® Multilabel Plate Reader (Perkin Elmer). Signal obtained in the wells containing blank samples was subtracted from all other wells and IC50's were determined by fitting a sigmoidal curve to % inhibition of control versus Log10 compound concentration.

[3] = test system: P-IKKα levels in L363 cells; test: Biological Assay B: effect of compounds on P-IKKα levels in L363 cells; assay type: cell-based; details: Homo sapiens, L-363, BAFF stimulated, 2 hr treatment, averaged values, read-out: IKKα Cellular IC50
Protocol: Effect of Compounds on P-IKKα Levels in L363 Cells
All compounds tested were dissolved in DMSO and further dilutions were made in culture medium. Final DMSO concentration was 1% (v/v) in cell assays. The human L363 cells (ATCC) were cultured in RPMI 1640 medium supplemented with GlutaMax and 10% fetal calf serum (PAA). Cells were routinely maintained at densities of 0.2×10^6 cells per ml—1×10^6 cells per ml at 37° C. in a humidified 5% CO2 atmosphere. Cells were passaged twice a week splitting back to obtain the low density. Cells were seeded in 96 well plates (Nunc 167008) at 2×10^6 per ml media in a volume of 75 μl per well plus 25 μl 1 μg/ml recombinant human B-cell activating factor (BAFF/BLyS/TNFSF13B). Seeded cells were incubated at 37° C. in a humidified 5% CO2 atmosphere for 24 hr. Drugs and/or solvents were added (20 μl) to a final volume of 120 μl. Following 2 hr treatment plates were removed from the incubator and cell lysis was achieved by the addition of 30 μl 5× lysis buffer followed by shaking on a plate shaker at 4° C. for 10 min. At the end of this incubation lysed cells were centrifuged at 800×g for 20 min at 4° C. and the lysate was assessed for P-IKKα levels by sandwich immuno-assay carried out in anti-rabbit antibody coated Mesoscale plates. Within an experiment, the results for each treatment were the mean of 2 replicate wells. For initial screening purposes, compounds were tested using an 8 point dilution curve (serial 1:3 dilutions). For each experiment, controls (containing MG132 and BAFF but no test drug) and a blank incubation (containing MG132 and BAFF and 10 μM ADS125117, a test concentration known to give full inhibition) were run in parallel. The blank incubation value was subtracted from all control and sample values. To determine the IC50 a sigmoidal curve was fitted to the plot of % inhibition of control P-IKKα levels versus Log10 compound concentration.

JJN-3 cells = test: Biological Assay C: antiproliferative activity on JJN-3 cells (CellTiter-Glo); assay type: cell-based, human; details: 72 hr treatment, averaged values
Protocol: (§1) Determination of Antiproliferative Activity on LP-1, L-363 and JJN-3 Cells
(§2) All compounds tested were dissolved in DMSO and further dilutions were made in culture medium. Final DMSO concentration was 0.3% (v/v) in cell proliferation assays. Viability was assessed using CellTiter-Glo cell viability assay kit (Promega). The human LP-1, L-363 and JJN-3 cells (DSMZ) were cultured in RPMI 1640 medium supplemented with 2 mM L-glutamine, and 10% fetal calf serum (PAA). Cells were routinely kept as suspension cells at 37° C. in a humidified 5% CO2 atmosphere. Cells were passaged at a seeding density of 0.2×10^6/ml twice a week. Cells were seeded in black tissue culture treated 96-well plates (Perkin Elmer). Densities used for plating ranged from 2,000 to 6,000 cells per well in a total volume of 75 μl medium. After twenty four hours, drugs and/or solvents were added (25 μl) to a final volume of 100 μl. Following 72 hr of treatment plates were removed from the incubator and allowed to equilibrate to room temperature for approx 10 min. 100 ut CellTiter-Glo reagent was added to each well that was then covered (Perkin Elmer Topseal) and shaken on plate shaker for 10 min. Luminescence was measured on a HTS Topcount (Perkin Elmer). Within an experiment, the results for each treatment were the mean of 2 replicate wells. For initial screening purposes, compounds were tested using a 9 point dilution curve (serial 1:3 dilutions). For each experiment, controls (containing no drug) and a blank incubation (containing cells read at the time of compound addition) were run in parallel. The blank value was subtracted from all control and sample values. For each sample, the mean value for cell growth (in relative light units) was expressed as a percentage of the mean value for cell growth of the control.

L-363 cells = test: Biological Assay C: antiproliferative activity on L-363 cells (CellTiter-Glo); assay type: cell-based, human; details: 72 hr treatment, averaged values
Protocol: as §1, §2

LP-1 cells = test: Biological Assay C: antiproliferative activity on LP-1 cells (CellTiter-Glo); assay type: cell-based, human; details: 72 hr treatment, averaged values
Protocol: as §1, §2

T1 sequence (Q99558 whole entry): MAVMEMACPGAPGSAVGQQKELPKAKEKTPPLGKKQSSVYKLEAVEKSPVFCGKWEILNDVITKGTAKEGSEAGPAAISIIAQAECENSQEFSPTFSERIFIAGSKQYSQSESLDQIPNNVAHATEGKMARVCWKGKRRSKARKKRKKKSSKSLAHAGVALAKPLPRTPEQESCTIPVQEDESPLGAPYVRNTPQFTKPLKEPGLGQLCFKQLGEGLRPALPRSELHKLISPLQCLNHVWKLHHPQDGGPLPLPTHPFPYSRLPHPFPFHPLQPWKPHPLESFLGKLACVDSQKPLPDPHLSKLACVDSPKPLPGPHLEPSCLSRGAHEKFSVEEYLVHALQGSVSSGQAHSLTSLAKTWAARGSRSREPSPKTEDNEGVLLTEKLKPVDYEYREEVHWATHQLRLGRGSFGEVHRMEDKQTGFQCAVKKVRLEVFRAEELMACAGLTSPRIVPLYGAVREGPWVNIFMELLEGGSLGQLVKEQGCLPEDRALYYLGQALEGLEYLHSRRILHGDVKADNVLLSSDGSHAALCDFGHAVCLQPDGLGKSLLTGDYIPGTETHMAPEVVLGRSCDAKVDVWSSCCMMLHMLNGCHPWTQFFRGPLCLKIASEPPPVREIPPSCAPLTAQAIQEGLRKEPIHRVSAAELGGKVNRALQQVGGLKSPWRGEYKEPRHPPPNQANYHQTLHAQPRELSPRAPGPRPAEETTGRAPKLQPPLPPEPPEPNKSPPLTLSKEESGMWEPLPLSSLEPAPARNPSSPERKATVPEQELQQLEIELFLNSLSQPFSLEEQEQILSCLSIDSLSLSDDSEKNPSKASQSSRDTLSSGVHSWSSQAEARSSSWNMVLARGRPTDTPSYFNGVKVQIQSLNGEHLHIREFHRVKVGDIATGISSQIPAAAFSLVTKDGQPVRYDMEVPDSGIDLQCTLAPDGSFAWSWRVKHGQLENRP

Row | SMILES | IC50 [1] [nM] | IC50 [2] [nM] | IC50 [3] [nM] | EC50 (JJN-3 cells; Homo sapiens, JJN-3, 72 h) [nM] | EC50 (L-363 cells; Homo sapiens, L-363, 72 h) [nM] | EC50 (LP-1 cells; Homo sapiens, LP-1, 72 h) [nM] | EC50 (JJN-3 cells) [nM] | EC50 (L-363 cells) [nM] | EC50 (LP-1 cells) [nM]
1 | CC(C)n1cc(-c2cn[nH]c2)c2cc(C#CC(C)(C)O)ccc21 [Compound 8] | 13 | 14 | 18 | 218 | 221 | 219 | – | – | –
2 | CCn1cc(-c2c[nH]nc2Cl)c2cc(C#CC(C)(C)O)c(F)cc21 [Compound 24] | – | 11 | 127 | 734 | 683 | 1580 | – | – | –
3 | CN1CCC(n2cc(-c3c[nH]nc3Cl)c3cc(C#CC(C)(O)c4ncccn4)c(F)cc32)CC1 (stereo not drawn) [Compound 37] | – | 162 | – | 4470 | 2880 | 2510 | – | – | –
4 | CCn1cc(-c2c[nH]nc2N)c2cc(C#CC(C)(C)O)ccc21 [Compound 2] | 44 | 43 | 87 | 733 | 990 | 1420 | – | – | –
5 | COCCCn1cc(-c2c[nH]nc2Cl)c2cc(C#CC(C)(C)O)c(F)cc21 [Compound 18] | – | 33 | – | 706 | 1180 | 1510 | – | – | –
6 | CCn1cc(-c2c[nH]nc2Cl)c2cc(C#CC(C)(C)O)cc(Cl)c21 [Compound 23] | – | 204 | – | 2740 | 5400 | 3610 | – | – | –
7 | [2H]c1n[nH]c([2H])c1-c1cn(CC)c2cc(F)c(C#CC(C)(C)O)cc12 [Compound 16] | – | 8510 | – | – | – | 14200 | – | – | –
8 | CCn1cc(-c2cn[nH]c2)c2cc(C#CC(C)(C)O)cc(F)c21 [Compound 26] | – | 51 | – | 1570 | 1130 | 2210 | – | – | –
9 | CCn1cc(-c2c[nH]nc2Cl)c2cc(C#CC(C)(C)O)c(F)c(F)c21 [Compound 25] | – | 86 | – | 2230 | 4350 | 3230 | – | – | –
10 | [2H]C([2H])([2H])C(O)(C#Cc1cc2c(-c3c[nH]nc3Cl)cn(C3CCCN(CC)C3)c2cc1F)C([2H])([2H])[2H] (single isomer, unassigned) [Compound 31] | – | 146 | – | – | – | – | 606 | 436 | 731
11 | CN1CCC(n2cc(-c3c[nH]nc3Cl)c3cc(C#CC(C)(C)O)c(F)cc32)CC1 [Compound 20] | – | 21 | – | 61 | 43 | 111 | – | – | –
12 | Cc1cc(C(C)(O)C#Cc2cc3c(-c4c[nH]nc4Cl)cn(C4CCN(C)CC4)c3cc2F)no1 (stereo not drawn) [Compound 34] | – | 42 | – | 1380 | 1220 | 2450 | – | – | –
13 | CCn1cc(-c2c[nH]nc2C(F)(F)F)c2cc(C#CC(C)(C)O)ccc21 [Compound 4] | 581 | 350 | – | – | – | – | – | – | –
14 | CN1CCC(n2cc(-c3c[nH]nc3Cl)c3cc(C#CC4(O)CCCC4)c(F)cc32)CC1 [Compound 36] | – | – | – | 1220 | 845 | 1210 | – | – | –
15 | [2H]C([2H])([2H])C(O)(C#Cc1cc2c(-c3c[nH]nc3Cl)cn(C3CCCN(CC)C3)c2cc1F)C([2H])([2H])[2H] (stereo not drawn) [Compound 30] | – | 126 | – | 379 | – | 397 | – | 201 | –
16 | [2H]C([2H])([2H])C(O)(C#Cc1cc2c(-c3c[nH]nc3Cl)cn(C3CCN(C4CC4)CC3)c2cc1F)C([2H])([2H])[2H] [Compound 15] | – | 71 | – | 608 | 265 | 581 | – | – | –
17 | COCCCn1cc(-c2c[nH]nc2Cl)c2cc(C#CC(C)(O)C3CC3)c(F)cc21 (stereo not drawn) [Compound 17] | – | 183 | – | 1520 | 3240 | 1400 | – | – | –
18 | CN1CC(n2cc(-c3c[nH]nc3Cl)c3cc(C#CC(C)(C)O)c(F)cc32)C1 [Compound 29] | – | 50 | – | 375 | 176 | 758 | – | – | –
19 | CCn1cc(-c2cn[nH]c2)c2cc(C#CC(C)(C)O)cc(C(F)(F)F)c21 [Compound 27] | – | 552 | – | – | – | – | – | – | –
20 | CC(O)(C#Cc1cc2c(-c3c[nH]nc3Cl)cn(CCCO)c2cc1F)C1CC1 (stereo not drawn) [Compound 21] | – | 67 | – | 1090 | 1930 | 3510 | – | – | –
21 | CN1CCC(n2cc(-c3c[nH]nc3Cl)c3cc(C#CC(C)(O)C4CC4)c(F)cc32)CC1 (stereo not drawn) [Compound 19] | – | 190 | – | 811 | 632 | 749 | – | – | –
22 | Cc1nc(C(C)(O)C#Cc2cc3c(-c4c[nH]nc4Cl)cn(C4CCN(C)CC4)c3cc2F)no1 (stereo not drawn) [Compound 35] | – | 84 | – | 1360 | 1090 | 4580 | – | – | –
23 | CC(C)(O)C#Cc1cc2c(-c3c[nH]nc3Cl)cn(CCCO)c2cc1F [Compound 22] | – | 11 | 32 | 255 | 430 | 1350 | – | – | –
24 | CCn1cc(-c2cn[nH]c2)c2cc(C#CC(C)(C)O)cc(C#N)c21 [Compound 28] | – | 554 | – | – | – | – | – | – | –
25 | [2H]C([2H])([2H])C(O)(C#Cc1cc2c(-c3c[nH]nc3Cl)cn(C3CCCN(CC)C3)c2cc1F)C([2H])([2H])[2H] (single isomer, unassigned) [Compound 32] | – | 76 | – | – | – | – | 437 | 310 | 407
26 | CN1CCC(n2cc(-c3c[nH]nc3Cl)c3cc(C#CC(C)(O)c4nccs4)c(F)cc32)CC1 (stereo not drawn) [Compound 33] | – | 18 | – | 624 | 875 | 1610 | – | – | –
